Reference: EP3858357A1, “USE OF AZOLE COMPOUNDS TO STIMULATE THE IMMUNE SYSTEM AND AS INHIBITORS FOR S-PLA2GIB” (Diaccurate, priority 2020, dated 2021)

Columns and labels:
sPLA2hGIB = sPLA2hGIB (Homo sapiens, UniProt P04054); experiment: Inhibition of sPLA2hGIB enzymatic activity, [3H]oleate-labelled E. coli membranes (method of Rouault et al., 2006); type: biochemical; settings: sPLA2hGIB (2 pM) pre-incubated with 10, 30, 100, 300 µM; Figure 2A
Source text: (§1) • Figure 1: Screening of the inhibition of sPLA2hGIB enzymatic activity by small molecules previously identified by in silico screening. 0% represents non-specific hydrolysis in the absence of sPLA2hGIB, and 100 % represents sPLA2hGIB activity with DMSO (1 %). […] The condition 'no hGIB' (0%) represents the non-specific hydrolysis of phospholipids present in E. coli membranes radio-labeled with [^3H]oleate. […] HA-tagged receptors are in the presence of sPLA2hGIB or sPLA2hGIIF, then in the presence of a specific biotinylated anti-sPLA2 antibody; "acceptor" beads are coupled to an anti-HA antibody (PerkinElmer) and "donor" beads are coupled to Streptavidine (PerkinElmer).
The condition 'no hGIB' (0%) represents the non-specific hydrolysis of phospholipids present in E. coli membranes radio-labeled with [^3H]oleate.

sPLA2hGX = target: T1, sPLA2hGX (Homo sapiens, UniProt O15496); experiment: Inhibition of sPLA2hGX enzymatic activity (method of Rouault et al., 2006); type: biochemical; settings: 3-300 µM tested; Figure 2B
T1 sequence (O15496 43-165): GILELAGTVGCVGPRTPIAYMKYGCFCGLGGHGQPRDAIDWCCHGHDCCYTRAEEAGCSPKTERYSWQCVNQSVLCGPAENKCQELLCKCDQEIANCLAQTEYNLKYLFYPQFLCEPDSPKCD

sPLA2hGIIA = target: T2, sPLA2hGIIA (Homo sapiens, UniProt P14555); experiment: Inhibition of sPLA2hGIIA enzymatic activity (method of Rouault et al., 2006); type: biochemical; settings: 3-300 µM tested; Figure 2B
T2 sequence (P14555 21-144): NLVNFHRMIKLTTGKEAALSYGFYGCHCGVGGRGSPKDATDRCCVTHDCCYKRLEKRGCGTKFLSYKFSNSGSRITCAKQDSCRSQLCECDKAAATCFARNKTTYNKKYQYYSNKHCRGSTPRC

sPLA2hGV = sPLA2hGV (Homo sapiens, UniProt P39877); experiment: Inhibition of sPLA2hGV enzymatic activity (method of Rouault et al., 2006); type: biochemical; settings: 3-300 µM tested; Figure 2B
Chain of sPLA2hGV (P39877 21-138): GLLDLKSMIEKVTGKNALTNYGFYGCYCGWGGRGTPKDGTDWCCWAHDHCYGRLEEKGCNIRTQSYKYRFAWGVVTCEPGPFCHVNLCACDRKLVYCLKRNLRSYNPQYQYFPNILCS

[1] = target: binding between mPLA2R1 receptor and sPLA2hGIB (Homo sapiens, UniProt P04054); experiment: AlphaLISA-based competition test of sPLA2hGIB binding to soluble HA-tagged mPLA2R1; settings: decrease of binding between mPLA2R1 and sPLA2hGIB; Figure 3B
Chain of binding between mPLA2R1 receptor and sPLA2hGIB (P04054 23-148): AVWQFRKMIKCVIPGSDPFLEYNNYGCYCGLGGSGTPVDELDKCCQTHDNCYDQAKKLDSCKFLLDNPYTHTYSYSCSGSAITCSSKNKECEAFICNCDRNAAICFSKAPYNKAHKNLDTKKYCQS
Source text: as §1
The inventors have developed and used an AlphaLISA®-based test (Figure 3A) capable of detecting binding between the soluble form of mPLA2R1 (which includes the whole extracellular part), and sPLA2hGIB. […]
HA-tagged receptors are in the presence of sPLA2 of interest, then in the presence of a specific biotinylated anti-sPLA2 antibody; "acceptor" beads are coupled to an anti-HA antibody (PerkinElmer) and "donor" beads are coupled to Streptavidine (PerkinElmer). The binding of a HA-tagged receptor and a sPLA2 of interest in solution, results in a proximity of donor and acceptor beads, allowing for energy transfer and the production of a light signal, which is then measured.

Chain of sPLA2hGIB (P04054 23-148): as above

CC(C)N1CCN(c2ccc(OCC3COC(Cn4cncn4)(c4ccc(Cl)cc4Cl)O3)cc2)CC1 [Terconazole, 1-{[(2S,4S)-2-(2,4-dichlorophenyl)-4-{[p-(4-isopropyl-1-piperazinyl)phenoxy]methyl}-1,3-dioxolan-2-yl]methyl}-1H-1,2,4-azole]
IC50 (sPLA2hGIB): 100 to 150 µM
IC50 (sPLA2hGX): ~150 µM
IC50 (sPLA2hGIIA): > 300 µM
IC50 (sPLA2hGV): > 300 µM
IC50 [1]: ~100 µM
